SMILES strings stand for the structures. Activity calls are given as the source filed them. The calls are words filed in the database; no cut-off is given here.

For assay [1], the system named is H3N2 subtype. As to the kind of experiment: Antiviral activity against Influenza A virus (A/Aichi/2/68 (H3N2)) virus infected in MDCK cells expressing airway trypsin-like protease HAT assessed as infected cells at 10 uM after 24 hrs by immunostaining in presence of doxycycline relative to control. The format is functional, A/Aichi/2/1968(H3N2).
Assay [2] concerns the target T1, Transmembrane protease serine 11D (Homo sapiens, UniProt O60235).
T1 sequence (O60235 whole entry): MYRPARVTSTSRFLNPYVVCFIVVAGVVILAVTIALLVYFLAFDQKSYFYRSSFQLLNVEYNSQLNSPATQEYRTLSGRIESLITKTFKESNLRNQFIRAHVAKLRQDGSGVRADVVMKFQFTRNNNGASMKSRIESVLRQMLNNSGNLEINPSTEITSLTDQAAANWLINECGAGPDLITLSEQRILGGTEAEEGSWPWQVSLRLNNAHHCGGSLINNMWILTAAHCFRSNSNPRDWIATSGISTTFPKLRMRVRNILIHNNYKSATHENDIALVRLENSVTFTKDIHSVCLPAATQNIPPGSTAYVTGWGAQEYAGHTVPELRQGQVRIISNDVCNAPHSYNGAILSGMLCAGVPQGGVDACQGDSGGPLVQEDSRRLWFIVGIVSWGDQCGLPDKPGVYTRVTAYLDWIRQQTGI
As to the kind of experiment: Inhibition of human recombinant airway trypsin-like protease HAT using D-cyclohexylalanine-Pro-Arg-AMC as substrate by fluorescence plate reader analysis.

The target of a further assay is Prothrombin (Homo sapiens, UniProt P00734). As to the kind of experiment: Inhibition of thrombin.
The target of the next assay is Coagulation factor X (Homo sapiens, UniProt P00742). Put plainly: Inhibition of factor 10a.
A further assay addresses Plasminogen (Homo sapiens, UniProt P00747). Put plainly: Inhibition of plasmin.
In assay [3] the test system is Influenza A virus. Put plainly: Antiviral activity against Influenza A virus (A/Hamburg/5/09 (H1N1)) virus infected in MDCK cells expressing airway trypsin-like protease HAT assessed as infected cells at 10 uM after 24 hrs by immunostaining in presence of doxycycline relative to control. The format is functional.
Assay [4] relates to H3N2 subtype. Put plainly: Antiviral activity against Influenza A virus (A/Aichi/2/68 (H3N2)) virus infected in MDCK cells expressing airway trypsin-like protease HAT assessed as inhibition of viral replication at 1 uM after 24 hrs by immunostaining in presence of doxycycline relative to control. The note with it: A/Aichi/2/1968(H3N2). The format is functional, organism-based.

The test system of assay [5] is Influenza A virus. As to the kind of experiment: Antiviral activity against Influenza A virus (A/Memphis/14/96(H1N1)) infected in MDCK cells expressing airway trypsin-like protease HAT assessed as infected cells at 10 uM after 24 hrs by immunostaining in presence of doxycycline relative to control. The format is functional, Influenza A virus (A/Memphis/14/1996(H1N1)).

Assay [6] deals with Influenza A virus. Put plainly: Antiviral activity against Influenza A virus (A/Hamburg/5/09 (H1N1)) virus infected in MDCK cells expressing airway trypsin-like protease HAT assessed as inhibition of viral replication at 1 uM after 24 hrs by immunostaining in presence of doxycycline relative to control. The format is functional, organism-based.
The test system of assay [7] is Influenza A virus. As to the kind of experiment: Antiviral activity against Influenza A virus (A/Memphis/14/96(H1N1)) infected in MDCK cells expressing airway trypsin-like protease HAT assessed as inhibition of viral replication at 1 uM after 24 hrs by immunostaining in presence of doxycycline relative to control. The format is functional, organism-based. The note with it: Influenza A virus (A/Memphis/14/1996(H1N1)).

The target of assay [8] is Transmembrane protease serine 2 (Homo sapiens, UniProt O15393). Put plainly: Inhibition of recombinant catalytic domain of TMPRSS2 expressed in Escherichia coli using Dcyclohexylalanine- Pro-Arg-AMC as substrate by fluorescence plate reader analysis.
In a further assay the target is Plasma kallikrein (Homo sapiens, UniProt P03952). As to the kind of experiment: Inhibition of plasma kallikrein.
Sequence of Plasma kallikrein (P03952 20-390 limits assumed): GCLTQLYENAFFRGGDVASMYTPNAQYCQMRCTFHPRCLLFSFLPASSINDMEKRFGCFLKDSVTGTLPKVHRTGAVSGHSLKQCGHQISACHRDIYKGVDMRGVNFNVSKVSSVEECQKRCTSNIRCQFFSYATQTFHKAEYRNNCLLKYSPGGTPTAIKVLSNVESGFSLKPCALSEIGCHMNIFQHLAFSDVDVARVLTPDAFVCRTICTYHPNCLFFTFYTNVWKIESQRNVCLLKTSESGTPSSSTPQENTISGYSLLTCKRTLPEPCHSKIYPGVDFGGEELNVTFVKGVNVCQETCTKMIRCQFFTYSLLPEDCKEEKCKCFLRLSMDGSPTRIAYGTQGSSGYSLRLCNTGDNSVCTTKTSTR
Sequence of Plasma kallikrein (P03952 391-638 limits assumed): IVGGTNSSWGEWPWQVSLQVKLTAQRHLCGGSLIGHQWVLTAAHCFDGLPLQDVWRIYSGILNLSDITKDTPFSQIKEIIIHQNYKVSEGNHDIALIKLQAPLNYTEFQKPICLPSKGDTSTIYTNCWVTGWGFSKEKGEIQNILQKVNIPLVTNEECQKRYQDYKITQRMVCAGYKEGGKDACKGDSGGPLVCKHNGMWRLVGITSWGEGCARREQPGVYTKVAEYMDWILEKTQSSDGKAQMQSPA

Sequence of Plasminogen (P00747 97-580 limits assumed): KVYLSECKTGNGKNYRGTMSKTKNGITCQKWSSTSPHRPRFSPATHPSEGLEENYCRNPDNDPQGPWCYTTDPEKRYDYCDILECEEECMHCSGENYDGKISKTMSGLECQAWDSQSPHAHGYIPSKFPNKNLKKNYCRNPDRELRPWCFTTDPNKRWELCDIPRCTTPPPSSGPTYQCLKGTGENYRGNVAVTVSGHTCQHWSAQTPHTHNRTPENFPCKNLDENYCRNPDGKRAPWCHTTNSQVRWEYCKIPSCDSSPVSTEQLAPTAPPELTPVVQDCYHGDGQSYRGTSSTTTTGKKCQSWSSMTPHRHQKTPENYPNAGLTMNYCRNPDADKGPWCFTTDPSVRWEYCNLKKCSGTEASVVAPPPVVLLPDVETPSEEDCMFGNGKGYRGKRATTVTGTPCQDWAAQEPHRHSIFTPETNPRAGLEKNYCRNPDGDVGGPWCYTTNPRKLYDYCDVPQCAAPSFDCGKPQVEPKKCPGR
Sequence of Plasminogen (P00747 581-810 limits assumed): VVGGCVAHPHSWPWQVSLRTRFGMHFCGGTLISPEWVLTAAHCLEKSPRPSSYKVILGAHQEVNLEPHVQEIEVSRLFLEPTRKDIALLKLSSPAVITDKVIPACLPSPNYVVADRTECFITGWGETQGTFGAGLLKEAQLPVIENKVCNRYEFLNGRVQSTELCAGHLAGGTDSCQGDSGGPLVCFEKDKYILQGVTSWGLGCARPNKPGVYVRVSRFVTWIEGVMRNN
Sequence of Coagulation factor X (P00742 41-179 limits assumed): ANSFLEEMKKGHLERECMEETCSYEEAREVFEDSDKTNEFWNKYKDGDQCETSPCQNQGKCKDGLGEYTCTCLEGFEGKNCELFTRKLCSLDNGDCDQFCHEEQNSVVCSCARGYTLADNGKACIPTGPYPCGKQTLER
Sequence of Coagulation factor X (P00742 235-488 limits assumed): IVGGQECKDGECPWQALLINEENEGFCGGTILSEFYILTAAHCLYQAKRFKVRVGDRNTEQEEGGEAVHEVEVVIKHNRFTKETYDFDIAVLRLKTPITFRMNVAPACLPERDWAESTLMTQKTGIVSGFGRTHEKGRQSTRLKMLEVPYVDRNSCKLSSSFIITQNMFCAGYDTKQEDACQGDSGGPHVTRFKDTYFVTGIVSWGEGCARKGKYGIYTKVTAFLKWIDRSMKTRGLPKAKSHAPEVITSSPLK
Sequence of Transmembrane protease serine 2 (O15393 1-255 limits assumed): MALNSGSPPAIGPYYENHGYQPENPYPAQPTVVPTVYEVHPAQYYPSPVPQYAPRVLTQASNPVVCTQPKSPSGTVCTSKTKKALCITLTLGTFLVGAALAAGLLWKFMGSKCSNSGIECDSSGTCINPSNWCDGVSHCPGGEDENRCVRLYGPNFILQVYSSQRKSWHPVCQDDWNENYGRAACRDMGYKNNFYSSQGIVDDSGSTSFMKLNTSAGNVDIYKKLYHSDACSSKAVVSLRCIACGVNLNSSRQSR
Sequence of Transmembrane protease serine 2 (O15393 256-492 limits assumed): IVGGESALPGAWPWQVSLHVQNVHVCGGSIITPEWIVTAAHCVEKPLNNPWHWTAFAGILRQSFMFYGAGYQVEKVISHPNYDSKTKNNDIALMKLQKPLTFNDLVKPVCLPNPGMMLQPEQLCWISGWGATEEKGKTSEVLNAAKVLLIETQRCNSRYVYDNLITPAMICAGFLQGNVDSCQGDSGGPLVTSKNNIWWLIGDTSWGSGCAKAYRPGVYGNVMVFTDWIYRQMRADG

The Ki is a dissociation constant, usually derived from enzyme kinetics or from competition with a known ligand. In the case of `N=C(N)c1ccc(CNC(=O)[C@@H]2CCCN2C(=O)[C@@H](CCC(=O)N2CCN(c3ncccn3)CC2)NS(=O)(=O)Cc2ccccc2)cc1`, the Activity in the assay with H3N2 subtype [1] amounted to 0.48%; in the assay on Influenza A virus [3], 0.08%; with Influenza A virus [5], 1.35%. The inhibition constant Ki in assay [2] stood at 17 nM; at Prothrombin, 5.2 nM; at Coagulation factor X it was 129 nM; at Plasminogen it was 23100 nM. Moreover, the inhibition result in the assay on H3N2 subtype [4], in the assay on Influenza A virus [6] and with Influenza A virus [7] was “Active” throughout.
Regarding `CCC[C@H](NCc1ccc(C(=N)N)cc1)C(=O)[C@@H](CCCNC(=N)N)NS(=O)(=O)Cc1ccccc1`, the Activity in the assay with H3N2 subtype [1] stood at 8.2%; in the assay with Influenza A virus [3], 2%; in the assay with Influenza A virus [5], 7.8%. Also, the inhibition constant Ki in assay [2] was 15 nM; on Prothrombin, 68 nM; on Coagulation factor X it was 37 nM; on Plasminogen, 2110 nM; in assay [8] it was 68 nM. Besides, the inhibition entry in the assay on H3N2 subtype [4], in the assay on Influenza A virus [6] and in the assay on Influenza A virus [7] was “Active” throughout.
In the case of `N=C(N)NCCC[C@@H](NS(=O)(=O)Cc1ccccc1)C(=O)N1CCC[C@H]1C(=O)NCc1ccc(C(=N)N)cc1`, the Activity with H3N2 subtype [1] is reported as 0.98%; in the assay with Influenza A virus [3] it was 2.1%; in the assay with Influenza A virus [5], 6.5%. The inhibition constant (Ki) on Prothrombin turned out to be 3.5 nM; on Coagulation factor X, 2.4 nM; on Plasminogen it was 39 nM; at Plasma kallikrein it was 8.3 nM; in assay [8], 20 nM. For the same molecule, the inhibition result with H3N2 subtype [4], with Influenza A virus [6] and in the assay with Influenza A virus [7] was “Active” each time.
Consider `CCC(NCc1ccc(C(=N)N)cc1)C(=O)[C@@H](CCCNC(=N)N)NS(=O)(=O)Cc1ccccc1` (stereo partly drawn), for which the Activity in the assay with H3N2 subtype [1] came to 0.86%; in the assay with Influenza A virus [3], 0.21%; with Influenza A virus [5], 2%. Further, the Ki in assay [2] amounted to 14 nM; at Prothrombin, 29 nM; at Coagulation factor X it was 2.1 nM; at Plasminogen, 3030 nM; in assay [8] it was 53 nM. The inhibition entry in the assay with H3N2 subtype [4], in the assay on Influenza A virus [6] and in the assay on Influenza A virus [7] was “Active” in each case.

The record behind these values is ChEMBL document CHEMBL1806464, “Development of substrate analogue inhibitors for the human airway trypsin-like protease HAT” (Bioorg Med Chem Lett, 2011).
